Data set [1] relates to acetic acid induced writhing. Kind of data set: Acetic-acid induced writhing model of inflammatory pain. Format: in vivo. Conditions: mice, intraperitoneal, 1% acetic acid. The procedure: The number of writhes was counted for 15 minutes (3 consecutive 5 minute time bins). […] “Normal” posture was defined as movements opposite to those listed above (e.g. convex curvature of the spine, legs not extended, abdomen not lowered, tail in a straight or relaxed position, etc).
The total number of writhes over the 15 minute test session was used for all data analysis. All data was transformed using GraphPad Prism to % change from daily vehicle control for analysis based on the number of writhes produced by the saline vehicle control group (% change=# writhes in test group/mean # of writhes in daily vehicle control group*100).
In general terms: Writhing tests count abdominal constrictions after an irritant is injected.

A further data set concerns mice. Nature of the data set: In vivo behavioral studies (clinical observation assay). Conditions: 10 mg/kg SC, observed over 24 hours.
In the next data set the test system is formalin-induced events. Nature of the data set: Formalin model of pain. It counts as in vivo. Conditions: rats, subcutaneous. The procedure:
Nonfasted male Harlan rats were assigned to treatment group according to a randomized block study design to balance for test chamber and time of day, and day of test (if applicable). Each rat was administered either vehicle or test compound subcutaneously and then placed in their assigned test chamber and acclimated for 25-30 minutes with the chamber enclosure door left open. Data was not collected during this period. Following the acclimation period, each rat was removed individually starting with chamber 1, and dosed 5% formalin subcutaneously into the right rear paw plantar surface (formalin was made from a 37% stock solution, diluted down to 5% with saline).
Data collection started when the first rat was replaced in chamber 1 and the chamber door was closed and latched (skipped 1-minute acclimation screen on software). The number of events (also defined as “number of seconds”), defined as the number of 1-second bins with a change in dynamic force that exceeded an empirically determined threshold value (a value of arbitrary load units, which corresponded visually with rats quietly breathing or sniffing), were totaled in 5-minute intervals. In control rats, the number of events first increases within 5 minutes and then decreases during the subsequent 5 minutes (a quiescent phase) after formalin administration (Phase I, or Early Phase, of the formalin test), then increases again during the subsequent 35 minutes (Phase II, or Late Phase) of the formalin test. Formalin-induced movements detected by the system include licking and flinching of the affected paw as well as hopping and turning.
For constructing summaries for analysis of dose response curves or screens in the formalin test, the total number of events during the first 5 minutes after formalin administration was considered to be Phase I (Early Phase), and the total number of events for minutes 11 to 35 after formalin was considered to be Phase II (Late Phase). Data were analyzed using 1-way ANOVA, and comparisons of drug treatment groups were compared with control groups using appropriate, statistician-guided tests—most commonly Dunnett's for dose response curves and a Student's t-test for two-group (i.e. vehicle vs. positive control) comparison—utilizing JMP statistical software (SAS Institute Inc, Cary, N.C.). Data was expressed as means±SEM. An ED50 was calculated utilizing GraphPad Prism software.

The subject of data set [2] is CFA-induced weight bearing deficits. Nature of the data set: CFA induced weight bearing deficits in rats.
Description: Animals were habituated to the weight bearing test apparatus for 2 days prior to the start of the experiment. On Day 0, rats were tested in the weight bearing apparatus to measure baseline weight bearing of untreated hind paws. Following baseline testing, animals were injected intra-plantar with Complete Freund's Adjuvant (CFA). Using a syringe with a locking hub and 25 G needle, rats were injected via rear, left intra-plantar administration with 100 μL of 100% CFA (1.0 mg/ml) while under light isofluorane anesthesia. No treatment was administered to the right, rear, contralateral paw.
Intra-plantar test-compound administration was done while the animal was under light (3%) isofluorane anesthesia using 0.3 ml insulin syringe. The amount of anesthesia given to the animal during test compound administration was limited to a very short duration, so not to impede measurement of weight bearing at the 5 minute time point. On Day 1 (24 hrs post CFA), rats were tested in the weight bearing apparatus to measure CFA-induced changes in weight bearing. […] Following test compound administration, animals were retested in the weight bearing apparatus at the following time points: 5, 15, 30, 60 and 120 minutes post-test compound administration. Animals were retested on Day 2 (post-CFA) if there is a significant change in CFA induced weight bearing at the 120 minute time point on Day 1.
In data set [3] the test system is hot plate response latency. Nature of the data set: Rat hot plate model of centrally mediated analgesia.
Description: Rats were then tested on the hot plate 5, 30, 60, 120, 240 and 360 minutes later. The amount of time it took to lick one hind paw is measured and is considered the response latency. The mean and SEM of the responses latencies for each experimental group were calculated and a line depicting mean hot plate latency vs. time was generated using GraphPad Prism. An increase in mean response latency above baseline following test compound administration is indicative of an antinociceptive effect.
Data set [4] deals with T1, human μ opioid receptor (Homo sapiens (Human), UniProt P35372). Conditions: CHO cell membranes, cloned human receptor, […] [3H]DAMGO; read-out: Binding affinity μ (Ki, nm).
The next data set has as its target human κ opioid receptor (Homo sapiens (Human), UniProt P41145). Conditions: read-out: Binding affinity κ (Ki, nm).
The next data set has as its target human δ opioid receptor (Homo sapiens (Human), UniProt P41143). Nature of the data set: Receptor binding, competitive displacement of [3H]naltrindole. Conditions: CHO cell membranes, cloned human receptor, 0.2 nM [3H]naltrindole; uM; read-out: Binding affinity δ (Ki). A general note: Loss of bound radioactivity is the signal in a displacement assay; it reports binding, not function.

The target of data set [5] is T1, human μ opioid receptor. It counts as biochemical. Conditions: [35S]GTPγS binding, CHO membranes. On the procedure: The [^35S]GTPγS assay measures the functional properties of a compound by quantifying the level of G-protein activation following agonist binding in studies using stably transfected cells, and is considered to be a measure of the efficacy of a compound. Membranes from CHO (Chinese Hamster Ovary) cells that stably expressed the cloned human Mu opioid receptor were used in the experiments. In a final volume of 0.5 mL, 12 different concentrations of each test compound were incubated with 7.5 μg of CHO cell membranes that stably expressed the human μ opioid receptor. The assay buffer consisted of 50 mM Tris-HCl, pH 7.4, 3 mM MgCl2, 0.2 mM EGTA, 3 μM GDP, and 100 mM NaCl. The final concentration of [^35S]GTPγS was 0.080 nM. Nonspecific binding was measured by inclusion of 10 μM GTPγS. Binding was initiated by the addition of the membranes. After an incubation of 60 min at 30° C., the samples were filtered through Schleicher & Schuell No. 32 glass fiber filters. The filters were washed three times with cold 50 mM Tris-HCl, pH 7.5, and were counted in 2 mL of Ecoscint scintillation fluid.
(In general: GTPγS resists hydrolysis and so accumulates on activated G proteins.)

pKi: −log10 of the molar value. Entries after “also recorded” stand apart in the source; their conditions may differ.

What is called ED50 is the midpoint of the dose-response relation. What is called pKi is −log10 of the Ki, conventionally taken in molar units. As a reminder, the Ki is a dissociation constant, usually derived from enzyme kinetics or from competition with a known ligand.

Description for mice: Groups of mice (n=5 per group; >60 days; 20-25 grams weight) were dosed with vehicle (0.9% sterile saline) or test compounds (10 mg/kg free base, SC) 30 minutes before the first observation period. The occurrence of Straub tail, piloerection, hyperlocomotion, hypolocomotion, circling of the cage, sedation, breathing abnormalities, diuresis, seizure activity and occurrences of death were recorded at 0.5, 1, 2, 4, 6 and 24 hours following dosing.
This is tested with our clinical observation assay where mice are injected with 10 mg/kg subcutaneously with drug and the behaviors are noted over 24 hours.

With `CN1CC[C@]23CC(=O)CC[C@@]2(O)[C@H]1Cc1ccc(C(=O)NCCc2ccc(-c4cnc(O)nc4O)cc2)c(O)c13` [Compound 4], the ED50 came to 0.7 mg/kg in data set [1] (Mus musculus, ip) and 3.62 mg/kg with formalin-induced events (Rattus norvegicus, sc, read-out: Formalin test ED50). Besides, the “Effect on acetic acid induced writhing” value in data set [1] is “blocked acetic acid induced writhing in a dose-dependent manner”. Moreover, the “Clinical Observations after 10 mg/kg subcutaneous injection” value in the data set on mice is reported as “None”. Moreover, in the data set with formalin-induced events, the “Early Phase versus Late Phase effect in formalin test” value is given as “more robust effect of Compound 4 in the Late Phase effects than the Early Phase”. Moreover, in the data set with formalin-induced events (dose response), the “Effect on formalin-induced events” value is on record as “dose-dependent reversal of formalin-induced events”. In addition, in [2] (10 μg/paw intra-plantar), the “Analgesic effect with concurrent intra-plantar 75 ug naloxone methiodide” value is recorded as “significantly inhibited”. In addition, the “Reversal of CFA-induced weight bearing deficits” value in data set [2] (intra-plantar, 3, 10 and 30 μg/paw) was “dose-dependent reversal of CFA-induced weight bearing deficits; also recorded: comparable to that seen with Morphine”. Further, in data set [3] (SC 100 mg/kg), the “Hot plate efficacy at the highest dose tested” value is listed as “sub-maximal efficacy”. Also, in [3] (SC 10, 30 and 100 mg/kg), the “Hot plate activity compared with morphine” value was “significantly less active than morphine”. Moreover, the results for the pKi on human μ opioid receptor [4] and at human κ opioid receptor were 8.89 and 6.72, respectively. Also, the Ki at human δ opioid receptor is > 1 µM. Also, the “In vitro functional agonism for μ receptor Agonist?” value at human μ opioid receptor [5] is on record as “Yes”.

Values taken from US8962646B2, “Peripherally acting opioid compounds” (Alkermes, Inc., priority 2011, dated 2015).
